Earlier results as cited in US10316056B2, “Chemical compounds and use thereof for improving muscular quality” (BIOPHYTIS, priority 2014, dated 2019).

Tests used:
[1] = tested on: muscle cells derived from the C2C12 murine line; conditions: literature, Kazi et al., 2010; cited from earlier work
[2] = tested on: phosphorylations that activate proteins such as Akt or S6 kinase; conditions: could reach; literature, Kazi et al., 2010; cited from earlier work

## IGF-1: reference product (100 ng/ml) that stimulates protein synthesis
[1]
  increase in protein synthesis: 20%
[2]
  stimulation of targets of the signaling pathway: about 200%
